Data on three compounds can be found in patent US7622466B2, “Azaindole-2-carboxamide derivatives” (Hoffman-La Roche Inc., priority 2005, dated 2009).

Molecules are shown by their SMILES.

T1 sequence (Q9Y5N1 whole entry): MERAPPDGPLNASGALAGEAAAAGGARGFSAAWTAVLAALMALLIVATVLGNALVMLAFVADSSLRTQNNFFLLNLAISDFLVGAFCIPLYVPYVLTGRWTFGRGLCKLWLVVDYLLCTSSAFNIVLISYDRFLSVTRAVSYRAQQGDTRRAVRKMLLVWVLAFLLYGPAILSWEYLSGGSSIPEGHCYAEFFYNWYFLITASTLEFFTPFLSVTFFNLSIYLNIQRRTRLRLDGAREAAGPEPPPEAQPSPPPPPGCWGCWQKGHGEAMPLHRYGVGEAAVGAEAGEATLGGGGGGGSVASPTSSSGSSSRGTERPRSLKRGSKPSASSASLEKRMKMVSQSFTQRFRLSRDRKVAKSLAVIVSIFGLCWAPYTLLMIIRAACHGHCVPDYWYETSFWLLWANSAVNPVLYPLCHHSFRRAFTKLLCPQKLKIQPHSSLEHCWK

This test addresses T1, histamine 3 receptor (H3R) (Homo sapiens, UniProt Q9Y5N1).
T1 construct: expressed in transfected cells; host or cells: CHO cells (HR3-CHO cell line), membranes
Description: Competition binding assay with 3H-(R)α-methylhistamine on membranes of the human HR3-CHO cell line. The conditions noted are these: membrane of human HR3-CHO cell line; 3H(R)α-Methylhistamine 1 nM; Ki calculated from IC50 by Cheng-Prusoff equation. As for the experimental part: Binding Assay with ^3H-(R)α-methylhistamine
Saturation binding experiments were performed using HR3-CHO membranes prepared as described in Takahashi, K, Tokita, S., Kotani, H. (2003) J. Pharmacol. Exp. Therapeutics 307, 213-218.
An appropriate amount of membrane (60 to 80 μg protein/well) was incubated with increasing concentrations of ^3H(R)α-Methylhistamine di-hydrochloride (0.10 to 10 nM). Non specific binding was determined using a 200 fold excess of cold (R)α-Methylhistamine dihydrobromide (500 nM final concentration). The incubation was carried out at room temperature (in deep-well plates shaking for three hours). The final volume in each well was 250 μl. The incubation was followed by rapid filtration on GF/B filters (pre-soaked with 100 μl of 0.5% PEI in Tris 50 mM shaking at 200 rpm for two hours). The filtration was made using a cell-harvester and the filter plates were then washed five times with ice cold washing buffer containing 0.5 M NaCl. After harvesting, the plates were dried at 55° C. for 60 min, then we added scintillation fluid (Microscint 40, 40 microl in each well) and the amount of radioactivity on the filter was determined in Packard top-counter after shaking the plates for two hours at 200 rpm at room temperature.
Binding Buffer: 50 mM Tris-HCl pH 7.4 and 5 mM MgCl2×6H2O pH 7.4. Washing Buffer: 50 mM Tris-HCl pH 7.4 and 5 mM MgCl2×6H2O and 0.5 M NaCl pH 7.4.
Indirect measurement of affinity of H3R inverse agonists: twelve increasing concentrations (ranging from 10 μM to 0.3 nM) of the selected compounds were always tested in competition binding experiments using membrane of the human HR3-CHO cell line. An appropriate amount of protein, e.g. approximately 500 cpm binding of RAMH at Kd, were incubated for 1 hour at room temperature in 250 μl final volume in 96-well plates in presence of ^3H(R)α-Methylhistamine (1 nM final concentration=Kd). Non-specific binding was determined using a 200 fold excess of cold (R)α-Methylhistamine dihydrobromide.
All compounds were tested at a single concentration in duplicates.
Broadly, the Ki is the equilibrium dissociation constant of an inhibitor or competing ligand from its target. With `O=C(c1cc2cc(OCCCN3CCCC3)cnc2[nH]1)N1CCOCC1` [Example 5, Morpholin-4-yl-[5-(3-pyrrolidin-1-yl-propoxy)-1H-pyrrolo[2,3-b]pyridin-2-yl]-methanone], the Ki was 25.5 nM.

`CC(C)N1CCC(Oc2cnc3[nH]c(C(=O)N4CCC(F)(F)CC4)cc3c2)CC1` [Example 13, (4,4-Difluoro-piperidin-1-yl)-[5-(1-isopropyl-piperidin-4-yloxy)-1H-pyrrolo[2,3-b]pyridin-2-yl]-methanone]: the Ki is 28.9 nM. Turning to `CC(C)N1CCC(Oc2cnc3c(c2)cc(C(=O)N2CCC(F)(F)CC2)n3C(C)C)CC1` [Example 22, (4,4-Difluoro-piperidin-1-yl)-[1-isopropyl-5-(1-isopropyl-piperidin-4-yloxy)-1H-pyrrolo[2,3-b]pyridin-2-yl]-methanone], the Ki is 9.4 nM.
